Data on 2 molecules can be found in article PMC10379010, “Short Peptides of Innate Immunity Protein Tag7 (PGLYRP1) Selectively Induce Inhibition or Activation of Tumor Cell Death via TNF Receptor” (International Journal of Molecular Sciences, 2023).

Where a SMILES comes first, the peptide text is derived from it.

The test system of series [1] is K562 cells (killed by cytotoxic CD4+-T lymphocytes). In words: Inhibition of the cytotoxic activity of CD4+-T lymphocytes. Conditions: K562 cells preincubated with peptide 30 min (1 nM), then cytotoxic lymphocytes, ratio 1:20, 24 h; Cytotox 96; n = 5. The format is cell-based. The method, then: Figure 5 (a) The peptides were biotinylated and added to cells of the K562 line, followed by incubation for 1 h. Next, the peptides were cross-linked with Hsp70 on the cell surface with BS^3 reagent (Sigma-Aldrich, St. Louis, MO, USA). After stopping the reaction, the cells were lysed in RIP-A (Sigma-Aldrich, St. Louis, MO, USA) buffer in the presence of protease inhibitors. The lysate was purified by magnetic separation on M280 Streptavidin Beads. The obtained fractions containing 17.1A-Hsp70 and 17.1B-Hsp70 were analyzed using 12% SDS-PAGE electrophoresis and Western blot. Complexes were detected using primary antibodies abHsp70 poly-AT and secondary antibodies anti-rabbit peroxidase-linked (ECL). (b) Tumor cells of the K562 line were preincubated with peptides 17.1, 17.1A and 17.1B for 30 min., and then cytotoxic lymphocytes were added and cytotoxic activity was determined (24 h incubation), n = 5 for each point, (* p-value < 0.05). […]
For the cytotoxicity tests, target cells were cultured in 96-well plates (6 × 10^4 cells per well) and mixed with lymphocytes at a ratio of 1:20. The cytotoxicity was measured after 24 h of incubation. […] The cytotoxic activity of the lymphocytes was determined using the Cytotox 96 analysis kit (Promega, Madison, WI, USA) in accordance with the manufacturer’s protocol.

Series [2] concerns the target T1, Hsp70 (Homo sapiens, UniProt P0DMV8).
T1 construct: made in house
In words: Microscale thermophoresis, binding to labeled Hsp70. Conditions: labeled Hsp70 200 nM, 16 ligand concentrations, 20 min, room temperature, triplicate, average ± SD, read-out: Apparent dissociation constant (Kd) with Hsp70. From the text:
(§1) Protein–protein interactions of sTNFR1 and Hsp70 with the peptides 17.1, 17.1A and 17.1B and the Tag7 protein were quantified using microscale thermophoresis (MST). This biophysical method is based on the movement of molecules in a temperature gradient, which strongly depends on the charge, the hydration shell and the size of the moving molecules. At least one of these qualities usually changes during the formation of the complex. Therefore, thermophoresis provides a sensitive and reliable method for analyzing and quantifying protein–protein interactions. […] The obtained constants indicate a highly specific interaction of Tag7, 17.1 and 17.1A with sTNFR1. Similarly, clear changes in the thermophoretic signal were observed when Tag7, 17.1 and 17.1B were added to the labeled Hsp70. […]
(§2) The purified sTNFR1 and Hsp70 were fluorescently labeled using the Alexa Fluor 633 or Alexa Fluor 488 staining kit (Eugene, OR, USA) in accordance with the manufacturer’s instructions. sTNFR1 and Hsp70 (200 nM) were incubated for 20 min with each compound in the dark at room temperature at 16 different concentrations obtained by sequential dilution, starting from the highest soluble concentration. The samples were loaded into glass capillaries (Monolith NT Capillaries) and analyzed by thermophoresis using Nano-Temperature Monolith NT 115 apparatus (IR laser power 10%). […]

In series [3] the test system is L929 cells (TNFR1-induced cytotoxicity). In words: Inhibition of TNFR1-dependent cytotoxicity, L929 cells. The format is cell-based, mouse. Conditions: 24 h, peptide added 30 min before TNF (1 nM), only at peptide concentration of 100 nM, n = 5. The method, then:
Figure 2 Cells (HL-60 (a–d) or L-929 (e,f)) were preincubated with peptide 17.1A (a,b) or 17.1B (c–f) for 30 min, and then a cytotoxic agent (TNF, Tag7-Hsp70 complex or autoantibodies) was added and cytotoxic activity was then determined after 3 (a,c,e) or 24 h (b,d,f) of cell incubation. n = 5 for each group). (* p-value < 0.05).
(L929 cells, 24 h of incubation, peptides were added 30 min before incubation with TNF (1 nM)) n = 5 for each point.
For the cytotoxicity tests, target cells were cultured in 96-well plates (6 × 10^4 cells per well) and mixed with lymphocytes at a ratio of 1:20. The cytotoxicity was measured after 24 h of incubation. The inhibition test was performed with peptides 17.1, 17.1A and 17.1B at a concentration of 1 nM. The cytotoxic activity of the lymphocytes was determined using the Cytotox 96 analysis kit (Promega, Madison, WI, USA) in accordance with the manufacturer’s protocol.

The target in series [4] is T2, sTNFR1 (Homo sapiens, UniProt P19438).
T2 construct: the soluble extracellular domain of its receptor (sTNFR1); made in house
T2 sequence (P19438 30-211 limits assumed): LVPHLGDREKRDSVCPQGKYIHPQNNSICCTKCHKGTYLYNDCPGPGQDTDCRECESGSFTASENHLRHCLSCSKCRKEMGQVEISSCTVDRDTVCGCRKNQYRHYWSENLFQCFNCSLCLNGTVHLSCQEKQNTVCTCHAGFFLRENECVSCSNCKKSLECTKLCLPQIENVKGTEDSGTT
The series is described as follows: Microscale thermophoresis, binding to labeled sTNFR1. Conditions: labeled sTNFR1 200 nM, 16 ligand concentrations, 20 min, room temperature, triplicate, average ± SD, read-out: Apparent dissociation constant (Kd) with sTNFR1.
Source text: as §1, §2

T1 sequence (P0DMV8 whole entry): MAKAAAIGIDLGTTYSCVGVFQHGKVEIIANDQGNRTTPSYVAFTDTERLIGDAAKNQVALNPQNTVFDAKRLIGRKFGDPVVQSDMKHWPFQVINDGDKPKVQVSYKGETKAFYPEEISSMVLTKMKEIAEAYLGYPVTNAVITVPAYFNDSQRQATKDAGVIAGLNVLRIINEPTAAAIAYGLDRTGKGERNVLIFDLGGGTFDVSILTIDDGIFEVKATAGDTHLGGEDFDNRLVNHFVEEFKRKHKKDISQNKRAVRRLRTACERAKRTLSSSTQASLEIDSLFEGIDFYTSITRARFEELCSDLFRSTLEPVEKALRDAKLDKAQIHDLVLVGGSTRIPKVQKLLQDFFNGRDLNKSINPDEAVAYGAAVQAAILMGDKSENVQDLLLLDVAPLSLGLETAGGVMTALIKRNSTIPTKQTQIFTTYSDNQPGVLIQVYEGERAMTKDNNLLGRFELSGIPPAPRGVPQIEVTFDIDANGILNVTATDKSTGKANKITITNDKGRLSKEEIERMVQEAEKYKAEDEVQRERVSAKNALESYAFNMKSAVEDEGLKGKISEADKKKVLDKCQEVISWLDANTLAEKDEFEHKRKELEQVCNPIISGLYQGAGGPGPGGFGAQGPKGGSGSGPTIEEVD

As for `CC(C)[C@H](NC(=O)[C@H](CC(=O)O)NC(=O)[C@H](CCCNC(=N)N)NC(=O)[C@@H](N)Cc1c[nH]cn1)C(=O)N[C@@H](CCC(N)=O)C(=O)N[C@@H](CCCNC(=N)N)C(=O)N[C@H](C(=O)O)[C@@H](C)O` [17.1A, HRDVQRT] (H-HRDVQRT-OH), in series [1], the “Effect on the cytotoxic activity of CD4+-T lymphocytes” value is recorded as “no effect on cell death”. The Kd in series [2] worked out at 222 ± 15 nM.

For `CC(C)C[C@H](NC(=O)[C@@H](NC(=O)[C@H](Cc1ccc(O)cc1)NC(=O)[C@H](CC(N)=O)NC(=O)[C@H](CO)NC(=O)[C@@H](N)CCCNC(=N)N)C(C)C)C(=O)N[C@@H](CCCCN)C(=O)NCC(=O)O` [17.1B, RSNYVLKG] (H-RSNYVLKG-OH), in series [3], the “Inhibitory effect on TNF cytotoxic activity at 100 nM” value was “weak inhibitory effect”. For the same molecule, in series [1], the “Effect on the cytotoxic activity of CD4+-T lymphocytes” value is “completely block the cytotoxic effect of lymphocytes”. Moreover, the Kd was 6.69 ± 0.12 µM in series [4] and 3.15 ± 0.7 nM in series [2].
